From publication PMC11882969 (Nature Communications, 2025)
“And” between values parts separate entries of the source, which are not always exact repeats. Equal entries are not always repeated. Marks after values point to notes of the source that are not given here.

Molecular target: hCB1 (Homo sapiens, UniProt P21554)
Experiment: bioSensAll ebBRET signaling profiling, hCB1
Type: cell-based
Set-up: host or cells: HEK293SL cells, transient PEI transfection

Chain of hCB1 (P21554 whole entry): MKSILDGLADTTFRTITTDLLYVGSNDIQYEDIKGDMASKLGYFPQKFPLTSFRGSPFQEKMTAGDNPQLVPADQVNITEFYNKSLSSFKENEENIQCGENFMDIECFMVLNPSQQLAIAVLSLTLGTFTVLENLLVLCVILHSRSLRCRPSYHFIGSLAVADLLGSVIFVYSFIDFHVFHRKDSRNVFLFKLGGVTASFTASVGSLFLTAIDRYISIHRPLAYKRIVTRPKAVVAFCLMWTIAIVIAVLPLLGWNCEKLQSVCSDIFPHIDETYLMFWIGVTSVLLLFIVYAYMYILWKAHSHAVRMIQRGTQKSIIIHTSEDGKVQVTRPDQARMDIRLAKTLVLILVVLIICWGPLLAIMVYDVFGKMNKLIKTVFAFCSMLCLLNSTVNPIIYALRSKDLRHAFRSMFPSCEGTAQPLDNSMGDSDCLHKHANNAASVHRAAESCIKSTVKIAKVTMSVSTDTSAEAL

COC(=O)[C@@](C)(NC(=O)c1cc(C)n(-c2cccc(C(F)(F)F)c2)n1)c1cccs1 [‘1350]
fold more relatively efficacious than CP-55,940 (CB1R, Gi/o and G13 subtypes): approximately 2 fold | Barr2+GRK2 hCB1 (Log [Compound] (M) -4.22186): 125.5* and 120.6* and 91.27* | G13 hCB1 (Log [Compound] (M) -4.22186): 69.1809 and 43.3855 | G15 hCB1 (Log [Compound] (M) -4.22186): 108.417 and 97.817 | Gi1 hCB1 (Log [Compound] (M) -4.22186): 103.518 and 79.8531 and 99.2855 | Gi2 hCB1 (Log [Compound] (M) -4.22186): 106.254 and 114.578 | GoB hCB1 (Log [Compound] (M) -4.22186): 102.685 and 99.7877 and 104.661 | Gq hCB1 (Log [Compound] (M) -4.22186): 1156 | Gs hCB1 (Log [Compound] (M) -4.22186): 6234 | Gz hCB1 (Log [Compound] (M) -4.22186): 98.9486 | Barr2+GRK2 hCB1 (Log [Compound] (M) -4.63927): 67.7543 and 59.6502 and 97.3886 | G15 hCB1 (Log [Compound] (M) -4.63927): 104.285 and 89.1373 | Gi1 hCB1 (Log [Compound] (M) -4.63927): 100.256 and 80.2965 and 97.3658 | Gi2 hCB1 (Log [Compound] (M) -4.63927): 112.478 and 82.217 | GoB hCB1 (Log [Compound] (M) -4.63927): 94.4304 and 95.2911 and 109.92 | Gq hCB1 (Log [Compound] (M) -4.63927): 1096 | Gs hCB1 (Log [Compound] (M) -4.63927): 6120 | Gz hCB1 (Log [Compound] (M) -4.63927): 94.4339 | G15 hCB1 (Log [Compound] (M) -5.05788): 99.6047 and 93.8454 | Gi1 hCB1 (Log [Compound] (M) -5.05788): 101.042 and 84.715 and 96.0704 | Gi2 hCB1 (Log [Compound] (M) -5.05788): 100.013 and 77.0501 | GoB hCB1 (Log [Compound] (M) -5.05788): 90.3283 and 96.4543 | Gq hCB1 (Log [Compound] (M) -5.05788): 1019 | Gs hCB1 (Log [Compound] (M) -5.05788): 6223 | Gz hCB1 (Log [Compound] (M) -5.05788): 91.6266 | G15 hCB1 (Log [Compound] (M) -5.47381): 92.6315 and 93.0563 | Gi1 hCB1 (Log [Compound] (M) -5.47381): 98.0616 and 86.5046 and 101.002 | Gi2 hCB1 (Log [Compound] (M) -5.47381): 109.888 and 85.6163 | GoB hCB1 (Log [Compound] (M) -5.47381): 95.0781 and 98.6071 | Gq hCB1 (Log [Compound] (M) -5.47381): 1081 | Gs hCB1 (Log [Compound] (M) -5.47381): 6070 | Gz hCB1 (Log [Compound] (M) -5.47381): 90.4534 | Barr2+GRK2 hCB1 (Log [Compound] (M) -5.89285): 49.9477 and 47.2064 and 86.5049 | G15 hCB1 (Log [Compound] (M) -5.89285): 99.748 and 91.636 | Gi1 hCB1 (Log [Compound] (M) -5.89285): 97.1719 and 80.8667 and 101.065 | Gi2 hCB1 (Log [Compound] (M) -5.89285): 102.458 and 76.0168 | GoB hCB1 (Log [Compound] (M) -5.89285): 92.8683 and 94.9439 and 107.071 | Gq hCB1 (Log [Compound] (M) -5.89285): 1042 | Gs hCB1 (Log [Compound] (M) -5.89285): 6370 | Gz hCB1 (Log [Compound] (M) -5.89285): 91.8989 | G15 hCB1 (Log [Compound] (M) -6.31878): 101.969 and 92.5566 | Gi1 hCB1 (Log [Compound] (M) -6.31878): 107.685 and 74.7378 and 104.951 | Gi2 hCB1 (Log [Compound] (M) -6.31878): 103.614 and 79.7423 | GoB hCB1 (Log [Compound] (M) -6.31878): 90.0362 and 98.2252 and 101.933 | Gq hCB1 (Log [Compound] (M) -6.31878): 1039 | Gs hCB1 (Log [Compound] (M) -6.31878): 6417 | Gz hCB1 (Log [Compound] (M) -6.31878): 93.1455 | G15 hCB1 (Log [Compound] (M) -6.72585): 105.885 and 89.0321 | Gi1 hCB1 (Log [Compound] (M) -6.72585): 94.74 and 76.8441 and 99.3323 | Gi2 hCB1 (Log [Compound] (M) -6.72585): 103.093 and 82.0131 | GoB hCB1 (Log [Compound] (M) -6.72585): 94.0367 and 93.8848 and 98.7347 | Gq hCB1 (Log [Compound] (M) -6.72585): 1115 | Gs hCB1 (Log [Compound] (M) -6.72585): 6298 | Gz hCB1 (Log [Compound] (M) -6.72585): 84.3779 | G15 hCB1 (Log [Compound] (M) -7.14267): 103.856 and 93.4508 | Gi1 hCB1 (Log [Compound] (M) -7.14267): 91.7446 and 70.6519 and 99.504 | Gi2 hCB1 (Log [Compound] (M) -7.14267): 99.8505 and 80.4086 | GoB hCB1 (Log [Compound] (M) -7.14267): 91.8523 and 88.9368 and 103.009 | Gq hCB1 (Log [Compound] (M) -7.14267): 1002 | Gs hCB1 (Log [Compound] (M) -7.14267): 6288 | Gz hCB1 (Log [Compound] (M) -7.14267): 87.489 and 99.2286 | Barr2+GRK2 hCB1 (Log [Compound] (M) -7.55284): 47.1448 and 43.6966 and 56.3415 | G15 hCB1 (Log [Compound] (M) -7.55284): 99.9152 and 95.5813 | Gi1 hCB1 (Log [Compound] (M) -7.55284): 97.765 and 74.1201 and 97.5531 | Gi2 hCB1 (Log [Compound] (M) -7.55284): 96.1681 and 79.7288 | GoB hCB1 (Log [Compound] (M) -7.55284): 92.1444 and 89.4924 and 88.6102 | Gq hCB1 (Log [Compound] (M) -7.55284): 1106 | Gs hCB1 (Log [Compound] (M) -7.55284): 6295 | Gz hCB1 (Log [Compound] (M) -7.55284): 88.7355 and 97.954 | G13 hCB1 (Log [Compound] (M) -8): 59.5674 and 29.7847 | G15 hCB1 (Log [Compound] (M) -8): 98.7928 and 95.555 | Gi1 hCB1 (Log [Compound] (M) -8): 85.5759 and 80.7558 and 94.7595 | Gi2 hCB1 (Log [Compound] (M) -8): 103.924 and 86.4729 | GoB hCB1 (Log [Compound] (M) -8): 93.1096 and 93.0515 and 90.8837 | Gq hCB1 (Log [Compound] (M) -8): 998 | Gs hCB1 (Log [Compound] (M) -8): 6325 | Gz hCB1 (Log [Compound] (M) -8): 81.7172 and 92.9121 | Barr2+GRK2 hCB1 (Log [Compound] (M) -8.22186): 55.5534 and 36.0388 and 57.0671 | G13 hCB1 (Log [Compound] (M) -8.22186): 68.4414 and 35.9312 | G15 hCB1 (Log [Compound] (M) -8.22186): 108.751 and 98.1326 | Gi1 hCB1 (Log [Compound] (M) -8.22186): 92.6788 and 89.3236 and 99.6444 | Gi2 hCB1 (Log [Compound] (M) -8.22186): 103.598 and 95.5013 | GoB hCB1 (Log [Compound] (M) -8.22186): 98.7737 and 93.6765 | Gq hCB1 (Log [Compound] (M) -8.22186): 1076 | Gs hCB1 (Log [Compound] (M) -8.22186): 6277 | Gz hCB1 (Log [Compound] (M) -8.22186): 86.1167 and 125.84 | Barr2+GRK2 hCB1 (Log [Compound] (M) -8.39794): 29.9976 and 37.6342 and 37.3728 | G15 hCB1 (Log [Compound] (M) -8.39794): 102.447 and 90.505 | Gi1 hCB1 (Log [Compound] (M) -8.39794): 89.9355 and 81.3893 and 90.8265 | Gi2 hCB1 (Log [Compound] (M) -8.39794): 93.2678 and 81.238
